In patent publication EP1430933A2, “Cosmetic and pharmaceutical compositions comprising steroid sulfatase inhibitors and their use for the reduction of hair loss” (Henkel Kommanditgesellschaft auf Aktien, priority 2002, dated 2004):

Target: T1, Arylsulfatase (EC 3.1.6.1) (Klebsiella aerogenes, UniProt P20713)
T1 construct: purchased Sigma S-1629
T1 sequence (P20713 21-464): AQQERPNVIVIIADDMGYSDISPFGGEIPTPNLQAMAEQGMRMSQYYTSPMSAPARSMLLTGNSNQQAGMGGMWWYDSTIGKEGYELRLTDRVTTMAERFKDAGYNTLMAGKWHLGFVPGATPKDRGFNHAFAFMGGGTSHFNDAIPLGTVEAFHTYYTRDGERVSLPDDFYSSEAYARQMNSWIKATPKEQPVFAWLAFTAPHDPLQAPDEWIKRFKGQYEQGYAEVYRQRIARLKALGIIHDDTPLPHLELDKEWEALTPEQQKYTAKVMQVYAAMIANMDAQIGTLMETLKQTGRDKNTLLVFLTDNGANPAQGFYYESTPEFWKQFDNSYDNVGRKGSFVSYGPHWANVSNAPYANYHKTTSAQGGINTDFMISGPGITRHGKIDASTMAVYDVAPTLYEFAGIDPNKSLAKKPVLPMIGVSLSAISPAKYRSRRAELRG
Test: Arylsulfatase enzyme test (Sigma sulfatase enzyme assay S-1629; p-nitrophenol formation from pNPS, 420 nm)
Format: biochemical
Conditions: pH 7,1, 37°C, 8 mM pNPS
From the text: Überprüfung der inhibitorischen Wirkung der Steroidsulfatase-Inhibitoren (in vitro)
Da die Sulfatase des Haarfollikels nicht zur Verfügung stand, diente eine handelsübliche Arylsulfatase (EC 3.1.6.1) aus Aerobacter aerogenes als Modellenzym, um die Hemmwirkung der erfindungsgemäß verwendeten Inhibitoren zu testen. Die Tests wurden mit dem Sulfatase-Enzymassay Product No. S-1629 von Sigma gemäß den Angaben im Sigma Quality Control Test Procedure-Datenblatt durchgeführt. Als Referenz-Inhibitoren dienten Ascorbinsäure und ATP.
Zur Auswertung wurde die Arylsulfatase-katalysierte Bildung von p-Nitrophenol aus dem Substrat p-Nitrophenylsulfat (pNPS) spektrophotometrisch (λ = 420 nm) verfolgt. Die Reaktionslösungen von 1000 µl, die auf eine Reaktionstemperatur von 37°C temperiert wurden, enthielten 187 mM Tris/HCl (pH 7,1), 8 mM pNPS und eine Startkonzentration von 0,05 U/ml Arylsulfatase. Die Einheit U der Enzymaktivität wurde so definiert, dass 1 U Sulfatase 1,0 µmol pNPS pro Minute bei pH 7,1 und 37°C hydrolysiert. Die Testdurchführung ist auch offenbart bei H.R. Fowler und D. H. Rammler, Biochemistry 3, 230, 1964. Die Reaktion wurde durch Zugabe des Enzyms gestartet und der Anstieg der Absorption bei λ = 420 nm über 5 Minuten verfolgt. Der lineare Anstieg der Absorption (A) pro Zeiteinheit (t) ist hierbei ein Maß für die Aktivität des Enzyms (ΔA/Δt). Die Aktivität des Enzyms in Abwesenheit eines Inhibitors, (ΔA1/Δt1 ), wurde als Referenz gleich 100% gesetzt. Unter analogen Bedingungen wurden die Aktivitäten in Gegenwart eines Inhibitors (ΔA2/Δt2) bestimmt. Die Hemmwirkung des Inhibitors bzw. die Minderung der Enzymaktivität wurde dann berechnet gemäß der Formel 100% - (ΔA2/Δt2 )/( ΔA1/Δt1 )%.

- Hemmwirkung (ACH-Lösung Locron® L 0,01 % (v/v)): Keine Hemmung meßbar
- Hemmwirkung (ACH-Lösung Locron® L 0,1 % (v/v)): 6%
- Hemmwirkung (ACH-Lösung Locron® L 0,5 % (v/v)): 27%
- Hemmwirkung (ACH-Lösung Locron® L 1 % (v/v)): 52%
Substance: Aluminiumchlorohydrat [Aluminiumchlorohydrat (ACH)]
